Paper doi:10.1101/2021.05.29.446083v1 (biorxiv, 2021)
Positions count from the first letter of the chain named.

What was measured:
5-HT1F [1] = biological target: T1, 5-HT1F (Homo sapiens, UniProt P30939, F310A); assay: NanoBiT Gi recruitment assay; type: cell-based
T1 sequence (P30939 1-366 F310A): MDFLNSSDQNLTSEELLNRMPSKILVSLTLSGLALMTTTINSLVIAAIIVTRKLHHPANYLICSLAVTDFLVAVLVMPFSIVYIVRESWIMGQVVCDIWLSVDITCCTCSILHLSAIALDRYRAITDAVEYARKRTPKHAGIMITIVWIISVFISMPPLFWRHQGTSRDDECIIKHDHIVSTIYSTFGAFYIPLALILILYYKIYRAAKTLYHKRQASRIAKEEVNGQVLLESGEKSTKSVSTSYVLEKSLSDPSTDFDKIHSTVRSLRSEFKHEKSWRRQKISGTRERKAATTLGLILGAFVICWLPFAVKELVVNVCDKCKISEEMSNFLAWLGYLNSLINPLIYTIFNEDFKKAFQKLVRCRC

5-HT1F [2] = biological target: T2, 5-HT1F (Homo sapiens, UniProt P30939, I104A); assay: NanoBiT Gi recruitment assay; type: cell-based
T2 sequence (P30939 1-366 I104A): T1 sequence (P30939 1-366 F310A) with I104A, A310F

5-HT1F–Gi1 complex = 5-HT1F–Gi1 complex (Homo sapiens, UniProt P30939); assay: cryo-EM structure, […] Å; details: orthosteric and extended binding pocket; 10 μM lasmiditan, pH 7.4
5-HT1F [3] = biological target: T3, 5-HT1F (Homo sapiens, UniProt P30939); assay: NanoBiT Gi recruitment assay; type: cell-based
T3 sequence (P30939 1-366): T1 sequence (P30939 1-366 F310A) with A310F

For CN1CCC(C(=O)c2cccc(NC(=O)c3c(F)cc(F)cc3F)n2)CC1 [lasmiditan], the EC50 (5-HT1F [1]) was > 100 µM, the EC50 (5-HT1F [2]) was 2.19 µM and the “cryo-EM structure, 3.4 Å” value (5-HT1F–Gi1 complex) was “the lasmiditan-bound 5-HT1F–Gi complex”. The EC50 (5-HT1F [3]) was 0.0302 µM.
